Measurements from US10183013B2, “Cyclic sulfonamide containing derivatives as inhibitors of hedgehog signaling pathway” (NantBioScience, Inc., priority 2012, dated 2019).

Test system: Hedgehog signalling (Gli-bla NIH3T3 cells, mShh stimulated)
Assay: Hedgehog signalling inhibition assay (Gli-Bla reporter assay in NIH 3T3 cells); also: mShh 400 ng/ml
Type: cell-based
Details: Mus musculus, NIH3T3, 24 h; read-out: EC50
Description: Hedgehog signalling inhibition assays. The following table 2 represents the average EC50 values for particular compounds of the inventions. Gli-bla NIH3T3 cells (7500 cells/well) were plated the day prior to the assay in a 384-well and 96-format in complete growth medium. […] Cells were stimulated with mShh for 24 hours and then loaded with LiveBLAzer™-FRET B/G Substrate for 3 hours. Emission values at 460 nm and 530 nm were obtained using a standard fluorescence plate reader and the 460/530 Ratios plotted for each treatment (n=4 for each data point).
J. Cancer, 2011, 30(7):472-81).

| Compound | EC50 |
| --- | --- |
| O=C(Nc1ccc(Cl)c(-c2ccccn2)c1)c1ccc(N2CCCS2(=O)=O)cc1 [Example 84] | < 10 nM |
| O=C(Nc1ccc(Cl)c(-c2ccccn2)c1)c1ccc(N2CCOCS2(=O)=O)cc1Cl [Example 85, 2-chloro-N-(4-chloro-3-(pyridin-2-yl)phenyl)-4-(3,3-dioxido-1,3,4-oxathiazinan-4-yl)benzamide] | < 10 nM |
| O=C(Nc1ccc(Cl)c(-c2nccc3ccccc23)c1)c1ccc(N2CCCS2(=O)=O)cc1 [Example 86] | 28000 nM |
| O=C(Nc1ccc(Cl)c(-c2ccc3ccccc3n2)c1)c1ccc(N2CCCS2(=O)=O)cc1 [Example 87] | 3000 nM |
| O=C(Nc1ccc(Cl)c(-c2ccc3ncccc3n2)c1)c1ccc(N2CCCS2(=O)=O)cc1 [Example 88] | 10000 nM |
| O=C(Nc1ccc(Cl)c(-c2ncc3ccccc3n2)c1)c1ccc(N2CCCS2(=O)=O)cc1 [Example 89] | 14000 nM |
| O=C(Nc1ccc(Cl)c(-c2ccc3cnccc3n2)c1)c1ccc(N2CCCS2(=O)=O)cc1 [Example 90] | 12000 nM |
| O=C(Nc1ccc(Cl)c(-c2ccc3ccccc3n2)c1)c1ccc(N2CCCCS2(=O)=O)cc1 [Example 93] | < 10 nM |
| O=C(Nc1ccc(Cl)c(-c2nccc3ccccc23)c1)c1ccc(N2CCCCS2(=O)=O)cc1 [Example 94] | < 10 nM |
| O=C(Nc1ccc(Cl)c(-c2ncc3ccccc3n2)c1)c1ccc(N2CCCCS2(=O)=O)cc1 [Example 95] | < 10 nM |
| O=C(Nc1ccc(Cl)c(-c2ccc3cnccc3n2)c1)c1ccc(N2CCCCS2(=O)=O)cc1 [Example 96] | < 10 nM |
| O=C(Nc1ccc(Cl)c(-c2ccc3ncccc3n2)c1)c1ccc(N2CCCCS2(=O)=O)cc1 [Example 97] | < 10 nM |
| O=C(Nc1ccc(Cl)c(-c2nccc3ccccc23)c1)c1ccc(N2CCCCS2(=O)=O)cc1Cl [Example 98] | < 10 nM |
| O=C(Nc1ccc(Cl)c(-c2ccc3ccccc3n2)c1)c1ccc(N2CCCCS2(=O)=O)cc1Cl [Example 99] | < 10 nM |
| O=C(Nc1ccc(Cl)c(-c2ncc3ccccc3n2)c1)c1ccc(N2CCCCS2(=O)=O)cc1Cl [Example 100] | < 10 nM |
| O=C(Nc1ccc(Cl)c(-c2ccc3cnccc3n2)c1)c1ccc(N2CCCCS2(=O)=O)cc1Cl [Example 101] | < 10 nM |
| O=C(Nc1ccc(Cl)c(-c2ccc3ncccc3n2)c1)c1ccc(N2CCCCS2(=O)=O)cc1Cl [Example 102] | < 10 nM |
| O=C(Nc1ccc(Cl)c(-c2nccc3ncccc23)c1)c1ccc(N2CCCCS2(=O)=O)cc1Cl [Example 103] | < 10 nM |
| O=C(Nc1ccc(Cl)c(-c2nccc3ccccc23)c1)c1ccc(N2CCOCS2(=O)=O)cc1Cl [Example 104, 2-chloro-N-(4-chloro-3-(isoquinolin-1-yl)phenyl)-4-(3,3-dioxido-1,3,4-oxathiazinan-4-yl)benzamide] | < 10 nM |
| O=C(Nc1ccc(Cl)c(-c2nccc3ncccc23)c1)c1ccc(N2CCOCS2(=O)=O)cc1Cl [Example 105, 2-chloro-N-(4-chloro-3-(1,6-naphthyridin-5-yl)phenyl)-4-(3,3-dioxido-1,3,4-oxathiazinan-4-yl)benzamide] | < 10 nM |
| O=C(Nc1ccc(Cl)c(-c2ccc3ncccc3n2)c1)c1ccc(N2CCOCS2(=O)=O)cc1Cl [Example 106, 2-chloro-N-(4-chloro-3-(1,5-naphthyridin-2-yl)phenyl)-4-(3,3-dioxido-1,3,4-oxathiazinan-4-yl)benzamide] | < 10 nM |
| O=C(Nc1ccc(Cl)c(-c2ccc3cnccc3n2)c1)c1ccc(N2CCOCS2(=O)=O)cc1Cl [Example 107, 2-chloro-N-(4-chloro-3-(1,6-naphthyridin-2-yl)phenyl)-4-(3,3-dioxido-1,3,4-oxathiazinan-4-yl)benzamide] | < 10 nM |
| O=C(Nc1ccc(Cl)c(-c2nccc3ccccc23)c1)c1ccc(N2CCOCS2(=O)=O)cc1 [Example 108, N-(4-chloro-3-(isoquinolin-1-yl)phenyl)-4-(3,3-dioxido-1,3,4-oxathiazinan-4-yl)benzamide] | 11000 nM |
| O=C(Nc1ccc(Cl)c(-c2nccc3ncccc23)c1)c1ccc(N2CCOCS2(=O)=O)cc1 [Example 109, N-(4-chloro-3-(1,6-naphthyridin-5-yl)phenyl)-4-(3,3-dioxido-1,3,4-oxathiazinan-4-yl)benzamide] | < 10 nM |
| Cc1ccc(NC(=O)c2ccc(N3CCCS3(=O)=O)cc2Cl)cc1-c1nccc2ccccc12 [Example 111] | < 10 nM |
| O=C(Nc1ccc(Cl)c(-c2nccc3ncccc23)c1)c1ccc(N2CCCS2(=O)=O)cc1Cl [Example 112] | < 10 nM |
| O=C(Nc1ccc(Cl)c(-c2nccc3ncccc23)c1)c1ccc(N2CCCS2(=O)=O)c(Cl)c1 [Example 113] | < 10 nM |

| Compound | EC50 |
| --- | --- |
| O=C(Nc1ccc(Cl)c(-c2nccc3ccccc23)c1)c1ccc(N2CCCS2(=O)=O)c(Cl)c1 [Example 114] | < 10 nM |
| O=C(Nc1ccc(Cl)c(-c2nccc3ccccc23)c1)c1ccc(N2CCCCS2(=O)=O)c(Cl)c1 [Example 115] | < 10 nM |
| O=C(Nc1ccc(Cl)c(-c2nccc3ncccc23)c1)c1ccc(N2CCOCS2(=O)=O)cc1F [Example 116, N-(4-chloro-3-(1,6-naphthyridin-5-yl)phenyl)-4-(3,3-dioxido-1,3,4-oxathiazinan-4-yl)-2-fluorobenzamide] | < 10 nM |
| O=C(Nc1ccc(Cl)c(-c2nccc3ccccc23)c1)c1ccc(N2CCOCS2(=O)=O)cc1F [Example 117, N-(4-chloro-3-(isoquinolin-1-yl)phenyl)-4-(3,3-dioxido-1,3,4-oxathiazinan-4-yl)-2-fluorobenzamide] | 16000 nM |
| O=C(Nc1ccc(Cl)c(NC(=O)c2ccccc2)c1)c1ccc(N2CCCS2(=O)=O)c(F)c1 [Example 118] | < 10 nM |
| O=C(Nc1ccc(Cl)c(NC(=O)c2cccnc2)c1)c1ccc(N2CCCS2(=O)=O)c(F)c1 [Example 119] | < 10 nM |
| O=C(Nc1cc(NC(=O)c2ccc(N3CCCS3(=O)=O)cc2Cl)ccc1Cl)c1cccc(Cl)c1 [Example 120] | < 10 nM |
| O=C(Nc1ccc(Cl)c(NC(=O)c2cccc(Cl)c2)c1)c1ccc(N2CCCS2(=O)=O)c(F)c1 [Example 121] | < 10 nM |
| O=C(Nc1cc(NC(=O)c2ccc(N3CCOCS3(=O)=O)cc2Cl)ccc1Cl)c1ccccc1 [Example 122, N-(3-benzamido-4-chlorophenyl)-2-chloro-4-(3,3-dioxido-1,3,4-oxathiazinan-4-yl)benzamide] | < 10 nM |
| O=C(Nc1ccc(Cl)c(-c2ccccn2)c1)c1ccc(N2CCOCS2(=O)=O)cc1F [Example 123, N-(4-chloro-3-(pyridin-2-yl)phenyl)-4-(3,3-dioxido-1,3,4-oxathiazinan-4-yl)-2-fluorobenzamide] | < 10 nM |
| O=C(Nc1cc(NC(=O)c2ccc(N3CCOCS3(=O)=O)cc2F)ccc1Cl)c1ccccc1 [Example 124, N-(3-benzamido-4-chlorophenyl)-4-(3,3-dioxido-1,3,4-oxathiazinan-4-yl)-2-fluorobenzamide] | < 10 nM |
| O=C(Nc1cc(NC(=O)c2ccc(N3CCOCS3(=O)=O)cc2Cl)ccc1Cl)c1cccc(F)c1 [Example 125, 2-chloro-N-(4-chloro-3-(3-fluorobenzamido)phenyl)-4-(3,3-dioxido-1,3,4-oxathiazinan-4-yl)benzamide] | < 10 nM |
| O=C(Nc1cc(NC(=O)c2ccc(N3CCOCS3(=O)=O)cc2Cl)ccc1Cl)c1ccc(Cl)cc1 [Example 126, 2-chloro-N-(4-chloro-3-(4-chlorobenzamido)phenyl)-4-(3,3-dioxido-1,3,4-oxathiazinan-4-yl)benzamide] | < 10 nM |
| O=C(Nc1cc(NC(=O)c2ccc(N3CCOCS3(=O)=O)cc2Cl)ccc1Cl)c1nccs1 [Example 127, N-(2-chloro-5-(2-chloro-4-(3,3-dioxido-1,3,4-oxathiazinan-4-yl)benzamido)phenyl)thiazole-2-carboxamide] | < 10 nM |
| O=C(Nc1ccc(Cl)c(NC(=O)c2cccc(Cl)c2)c1)c1ccc(N2CCCCS2(=O)=O)cc1 [Example 128] | < 10 nM |
| O=C(Nc1ccc(Cl)c(NC(=O)c2cccc(Cl)c2)c1)c1ccc(N2CCCS2(=O)=O)cc1 [Example 129] | < 10 nM |
| O=C(Nc1cc(NC(=O)c2ccc(N3CCOCS3(=O)=O)cc2Cl)ccc1Cl)c1cccc(Cl)c1 [Example 130] | < 10 nM |
| O=C(Nc1ccc(Cl)c(Oc2cccc(Cl)c2)c1)c1ccc(N2CCCS2(=O)=O)cc1Cl [Example 131] | < 10 nM |
| O=C(Nc1ccc(Cl)c(NC(=O)c2cccc(Cl)c2)c1)c1ccc(N2CCCS2(=O)=O)c(Cl)c1 [Example 132] | < 10 nM |
| O=C(Nc1ccc(Cl)c(NC(=O)c2ccccc2Cl)c1)c1ccc(N2CCOCS2(=O)=O)cc1Cl [Example 133, 2-chloro-N-(4-chloro-3-(2-chlorobenzamido)phenyl)-4-(3,3-dioxido-1,3,4-oxathiazinan-4-yl)benzamide] | < 10 nM |
| O=C(Nc1cc(NC(=O)c2ccc(N3CCCS3(=O)=O)cc2Cl)ccc1Cl)c1ccccc1 [Example 134] | < 10 nM |
| O=C(Nc1cc(NC(=O)c2ccc(N3CCCS3(=O)=O)cc2Cl)ccc1Cl)c1cccnc1 [Example 135, N-(2-chloro-5-(2-chloro-4-(1,1-dioxidoisothiazolidin-2-yl)benzamido)phenyl) nicotinamide] | < 10 nM |
| O=C(Nc1cc(NC(=O)c2ccc(N3CCOCS3(=O)=O)cc2Cl)ccc1Cl)c1cccnc1 [Example 136] | < 10 nM |
| O=C(Nc1ccc(Cl)c(Oc2cccc(Cl)c2)c1)c1ccc(N2CCOCS2(=O)=O)cc1Cl [Example 137] | < 10 nM |
| O=C(Nc1ccc(Cl)c(Oc2cccc(Cl)c2)c1)c1ccc(N2CCCS2(=O)=O)cc1 [Example 138] | < 10 nM |
| O=C(Nc1ccc(Cl)c(Oc2cccc(Cl)c2)c1)c1ccc(N2CCCS2(=O)=O)c(F)c1 [Example 139] | < 10 nM |
| CC(=O)Nc1cc(NC(=O)c2ccc(N3CCCS3(=O)=O)cc2Cl)ccc1Cl [Example 140] | 1000 nM |
